Assays:
[1] = NOVARTIS: Cytotoxicity against human hepatocellular carcinoma cell line (Huh7); format: toxicity, cell-based, Huh-7; details: Huh7 cells (hepatocellular carcinoma cell line)
Plasmodium falciparum [2] = test: NOVARTIS: Inhibition of Plasmodium falciparum W2 (drug-resistant) proliferation in erythrocyte-based infection assay; format: functional, organism-based; details: read-out: EC50
Plasmodium falciparum [3] = test: NOVARTIS: Inhibition of Plasmodium falciparum 3D7 (drug-susceptible) proliferation in erythrocyte-based infection assay; format: functional, organism-based

Compound	CC50 [1]	EC50 (Plasmodium falciparum [2]; Plasmodium falciparum, W2)	EC50 (Plasmodium falciparum [3]; Plasmodium falciparum, 3D7)	EC50 (Plasmodium falciparum [2])	EC50 (Plasmodium falciparum [3])
Cc1cc(Cl)ccc1NC(=O)c1ccccc1[N+](=O)[O-]	> 100000 nM	930 nM	2070 nM	–	–
COc1cc2nc(CN(C)C(C)c3cccs3)nc(N3CCCC3)c2cc1OC (centres undefined)	26400 nM	1990 nM	> 12500 nM	–	–
Nc1cccc(C(=O)Nc2ccc(Oc3cccc(Oc4ccc(NC(=O)c5cccc(N)c5)cc4)c3)cc2)c1	> 100000 nM	2550 nM	> 12000 nM	–	–
Cc1ccc(Nc2nc(NN=Cc3ccc(-c4ccc(Cl)c([N+](=O)[O-])c4)o3)nc(N3CCOCC3)n2)c(Br)c1	> 10000 nM	1320 nM	> 1060 nM	–	–
COc1ccc(OC(C)=O)c(C=NNC(=O)C(C)Oc2ccccc2Br)c1 (centres undefined)	> 100000 nM	2800 nM	5100 nM	–	–
CCCOC(=O)C1=C(C)NC2=C(C(=O)CC(c3ccc(Cl)cc3)C2)C1c1ccc(Cl)cc1 (centres undefined)	> 69800 nM	398 nM	294 nM	–	–
COc1cc(NC(C)CCCN(Cc2ccc(OC)c(OC)c2)C(=O)c2ccccc2C)c2ncccc2c1 (centres undefined)	> 12200 nM	831 nM	867 nM	–	–
CCn1ncc(CN2CCC(C(=O)Nc3ccccc3-c3cccc(OC)c3)CC2)c1C	47600 nM	1160 nM	> 12500 nM	–	–
COc1ccccc1N1CCN(C(=O)CCCCSc2nnc3c4cc(F)ccc4n(Cc4ccc(F)cc4)c3n2)CC1	> 57700 nM	207 nM	265 nM	–	–
O=C1Nc2ccc(Br)cc2C12NCCc1c2[nH]c2ccccc12 (centres undefined)	42200 nM	111 nM	198 nM	–	–
COc1ccc(C2CC(=O)C3=C(C2)NC(C)=C(C(=O)OC2CCCC2)C3c2ccccc2F)cc1OC (centres undefined)	14900 nM	12 nM	40.4 nM	–	–
COc1cc(NC(C)CCCN(Cc2ccccc2OC)C(=O)COCc2ccccc2)c2ncccc2c1 (centres undefined)	> 10000 nM	689 nM	1120 nM	–	–
COc1ccc(CN2CSC3=C(C#N)C(c4cccc(OC)c4)CC(=O)N3C2)cc1 (centres undefined)	> 100000 nM	3550 nM	3700 nM	–	–
CCCC[n+]1c(C=C2C=Cc3ccccc3N2CC)sc2ccccc21	> 10000 nM	–	–	694 nM	724 nM
O=C(c1ccc(F)cc1Cl)N1CCN(c2nc(-c3cccs3)ns2)CC1	> 10000 nM	78.9 nM	351 nM	–	–
Cc1cc(-c2cn[nH]c2C2CCCN(C(=O)Cc3ccccc3F)C2)on1 (centres undefined)	> 10000 nM	> 969 nM	> 1250 nM	–	–
Cc1ncc([N+](=O)[O-])n1CCOC(=O)c1c(NC(=O)c2ccccc2)sc2c1CCCC2	> 100000 nM	2000 nM	2600 nM	–	–
COc1ccc(-n2cc(-c3ccccc3)[n+]3c2SCC3)cc1	> 10000 nM	647 nM	527 nM	–	–
c1ccc2cc3c(NCCCN4CCOCC4)ccnc3cc2c1	598 nM	83.5 nM	44.3 nM	–	–
CC1CN(C(=O)c2sc3cccc(F)c3c2Cl)CC(C)O1 (centres undefined)	> 100000 nM	232 nM	299 nM	–	–
O=C(O)c1c[nH]c2cc(N3CCCCCC3)c(F)cc2c1=O	> 100000 nM	> 12500 nM	> 9800 nM	–	–
CC(C)CN(CC(=O)Nc1cc(C(C)(C)C)nn1-c1ccccc1)C(=O)Cc1cccs1	> 10000 nM	781 nM	1300 nM	–	–
Cc1ccc(C(=O)NCCN2CCCCC2)cn1	> 10000 nM	621 nM	> 1310 nM	–	–

Compound	CC50 [1]	EC50 (Plasmodium falciparum [2]; Plasmodium falciparum, W2)	EC50 (Plasmodium falciparum [3]; Plasmodium falciparum, 3D7)	EC50 (Plasmodium falciparum [2])	EC50 (Plasmodium falciparum [3])
CCOc1ccc2nc(C)cc(Nc3ccc(OC)cc3)c2c1	8350 nM	1150 nM	419 nM	–	–
Cc1cc(C)[n+](C)n1CC(O)Cn1c2ccccc2c2ccccc21 (centres undefined)	> 100000 nM	691 nM	1220 nM	–	–
CC(=O)Oc1ccccc1-c1nc2ccccn2c1NC(C)(C)CC(C)(C)C	> 9440 nM	36.7 nM	489 nM	–	–
COc1cc(CN(C)c2ccc3nc(N)nc(N)c3c2)cc(OC)c1OC	> 10000 nM	1190 nM	7.31 nM	–	–
CCOC(=O)c1ccc(NC2=C(N3CCCCC3)C(=O)c3ccccc3C2=O)cc1	> 80500 nM	334 nM	243 nM	–	–
COc1ccc2c(C)nc(Nc3nc(C)cc(-c4ccccc4)n3)nc2c1	> 100000 nM	1160 nM	341 nM	–	–
CCOC(=O)C1=C(C)NC2=C(C(=O)CCC2)C1c1cc(Br)c(O)c(OCC)c1 (centres undefined)	> 10000 nM	> 1760 nM	> 510 nM	–	–
Cc1ccccc1Cn1c(N2CCC(C(=O)NCc3ccccn3)CC2)nc2ccccc21	> 100000 nM	2160 nM	1940 nM	–	–
COc1ccc(-c2csc3nc(COc4cccc(C)c4)nn23)c(O)c1	> 100000 nM	7590 nM	> 4620 nM	–	–
COc1ccccc1NC(=O)CCN1CCCC(C)C1 (centres undefined)	> 10000 nM	> 598 nM	> 1650 nM	–	–
Nc1cc(C(=O)Nc2ccc(C3=NCCN3)cc2)ccc1C(=O)Nc1ccc(C2=NCCN2)cc1	90600 nM	179 nM	290 nM	–	–
CC(=O)NC(CO)C(O)c1ccc([N+](=O)[O-])cc1 (centres undefined)	> 100000 nM	2050 nM	> 9720 nM	–	–
O=C(NCc1nnc(SCC2CCCO2)n1Cc1ccccc1)c1cccc2ccccc12 (centres undefined)	8280 nM	< 26.5 nM	1870 nM	–	–
COc1ccc(OC)c(C2CC(=O)C3=C(C2)NC(=O)CC3c2ccc([N+](=O)[O-])cc2)c1 (centres undefined)	72200 nM	229 nM	262 nM	–	–
N#Cc1cn(-c2ccc(Cl)cc2)c(=O)n(Cc2c(Cl)cccc2Cl)c1=O	> 10000 nM	> 1250 nM	816 nM	–	–
Cc1cccc(N2C(=O)C3C(C2=O)C2(c4ccccc4)C(=O)C3(c3ccccc3)C(c3ccc4c(c3)OCO4)=C2c2ccc3c(c2)OCO3)c1 (centres undefined)	> 100000 nM	508 nM	1070 nM	–	–
CCOc1ccc(Nc2nc(N)c3ccccc3n2)cc1	2370 nM	1580 nM	862 nM	–	–
Cc1cccc(NC(=O)c2ccc(NCCCC3CCCCCC3)c([N+](=O)[O-])c2)c1	18800 nM	643 nM	441 nM	–	–
O=C(NCCN1CCOCC1)c1ccc(Cl)cc1 [MOCLOBEMIDE]	> 10000 nM	> 1250 nM	> 740 nM	–	–
CNC(=O)c1nn(C)c2c1CC(NCC1CCCCC1)CC2 (centres undefined)	> 100000 nM	2830 nM	> 12500 nM	–	–
CCCCn1c(=N)c(C(=O)NC(C)c2ccccc2)cc2c(=O)n3cccc(C)c3nc21 (centres undefined)	> 100000 nM	> 5680 nM	1380 nM	–	–
COc1ccc(/C=C/C(=O)NC(=O)c2ccccc2O)cc1OC	> 10000 nM	1130 nM	1080 nM	–	–
O=[N+]([O-])c1cccc(C(Nc2nccs2)c2ccc3cccnc3c2O)c1 (centres undefined)	16100 nM	198 nM	294 nM	–	–

Compound	CC50 [1]	EC50 (Plasmodium falciparum [2]; Plasmodium falciparum, W2)	EC50 (Plasmodium falciparum [3]; Plasmodium falciparum, 3D7)	EC50 (Plasmodium falciparum [2])	EC50 (Plasmodium falciparum [3])
Cc1ccn2c(NC(C)(C)CC(C)(C)C)c(-c3ccccc3OC(=O)c3ccc(Cl)cc3Cl)nc2c1	> 10000 nM	< 8.81 nM	728 nM	–	–
C[C@@H]1CC[C@H]2[C@@H](C)C(=O)O[C@@H]3O[C@@]4(C)CC[C@@H]1[C@]32OO4 [ARTEMISININ]	> 10000 nM	10.3 nM	43 nM	–	–
CC1CCCN(C(=O)C2CCN(Cc3ccccn3)CC2)C1 (centres undefined)	> 100000 nM	3580 nM	> 9140 nM	–	–
CC(=O)NCCc1nc2ccccc2n1Cc1ccc(C(C)C)cc1	48700 nM	98.1 nM	764 nM	–	–
COc1cc(OC)cc(C(=O)NCc2n[nH]c(=S)n2-c2cccc(Cl)c2)c1	> 100000 nM	450 nM	565 nM	–	–
COc1ccc(Cn2c(-c3ccc(Cl)cc3)c[n+]3ccccc23)cc1	> 10000 nM	541 nM	693 nM	–	–
COc1cc(OC)cc(C(=O)N2CCN(Cc3cccc(Br)c3)CC2)c1	> 100000 nM	5920 nM	> 12500 nM	–	–
COC(=O)C1=C(C)NC2=C(C(=O)CC(c3ccc(OC)cc3)C2)C1c1ccc(F)cc1 (centres undefined)	> 100000 nM	54.7 nM	191 nM	–	–
CCOC(=O)C1=C(C)NC2=C(C(=O)CC(C)(C)C2)C1c1cc(I)sc1SC (centres undefined)	> 100000 nM	287 nM	798 nM	–	–
COc1ccc(CN2CC(=O)N(c3ccc(Cl)cc3)C2=S)cc1OC	> 10000 nM	> 1250 nM	> 1180 nM	–	–
COc1cccc(NC(=O)c2ccc3oc(=O)c(S(=O)(=O)c4ccccc4)cc3c2)c1	> 10000 nM	> 898 nM	> 1250 nM	–	–
O=S(=O)(ON=C1CCCc2sc(Cl)cc21)c1ccccc1	> 100000 nM	40.9 nM	158 nM	–	–
CN(C)c1ccc(NC(=O)C2C3C=CC(O3)C2C(=O)O)cc1 (centres undefined)	32800 nM	47.7 nM	120 nM	–	–
CC(=O)Nc1ccc2c(c1)C(=O)N(C(C(=O)NCC(=O)O)C1CCCCC1)[C@@H](CCC(=O)O)C(=O)N2 (some centres undefined)	> 10000 nM	109 nM	> 418 nM	–	–
O=C(CCl)Nc1ccc(OC(F)F)cc1	18100 nM	162 nM	317 nM	–	–
CCOc1ccc(N=C2NC(=O)SC2=C2C(=O)Nc3ccc(Br)cc32)cc1	> 100000 nM	4910 nM	> 12500 nM	–	–
CCN(CC)S(=O)(=O)c1ccc(-c2csc(Nc3ccc(C)c(C)c3)n2)cc1	> 100000 nM	> 1170 nM	> 2100 nM	–	–
COc1ccc(/C=C2/SC(Nc3ccc(F)cc3)=NC2=O)c(OC)c1	> 10000 nM	916 nM	1060 nM	–	–
Cc1ccc(NC(=O)CCCCC(=O)Nc2ccc(C)c(Br)c2)cc1Br	> 10000 nM	> 1450 nM	> 1160 nM	–	–
COc1ccc2nc(NC(N)=NC(=O)Nc3ccccc3)nc(C)c2c1	34800 nM	896 nM	688 nM	–	–
Oc1ccc(-c2cncc(NCc3cccc(O)c3)c2)cc1	> 10000 nM	1250 nM	626 nM	–	–
CCNC(=O)C1CCN(c2cccc3c2C(=O)N(C2CCCCCCC2)C3=O)CC1	> 100000 nM	1310 nM	1750 nM	–	–
